Publication PMC5501782 (Scientific Reports, 2017)
Entries after “also recorded” stand apart in the source; their conditions may differ. Non-standard residues stand in square brackets, D forms with d. Residues, ends and D or L forms follow the SMILES beside them.

Tests used:
[1] = tested on: Vesicular stomatitis virus; settings: 48 h
[2] = tested on: influenza virus (A/Puerto Rico/8/34, PR8) expressing green fluorescent protein (PR8-GFP); type: cell-based
[3] = tested on: A/EM/Korea/W149/06 (W149, HPAI, H5N1); settings: mouse, in vivo
Newcastle disease virus = settings: 48 h
[4] = tested on: Porcine epidemic diarrhea virus; settings: 48 h
[5] = tested on: Influenza virus (H5N2) A/bird/Korea/W81/2005; settings: Influenza virus A/bird/Korea/W81/2005, 48 h
[6] = tested on: Influenza virus (H1N1) A/Puerto Rico/8/34; settings: Influenza virus A/Puerto Rico/8/34, 48 h
RSV (Hep2 cells) = type: cell-based, respiratory syncytial virus
PR8-GFP virus [7] = tested on: PR8-GFP virus; parameters: species or system influenza A virus
VSV (293T cells) = type: cell-based, vesicular stomatitis virus
Parainfluenza virus = settings: 48 h
[8] = tested on: Influenza virus (H9N2) A/Chicken/Korea/116/2004; settings: 48 h
[9] = tested on: Coxsackievirus (HeLa cells); type: cell-based
PR8-GFP virus [10] = type: cell-based, influenza A virus
[11] = tested on: Respiratory Syncytial Virus; settings: 48 h
Coxsakievirus = type: cell-based
[12] = tested on: Influenza virus (H7N3) A/Aquatic bird/Korea/W44/2005; settings: 48 h
Herpes simplex virus = settings: 48 h
Enterovirus71 = type: cell-based
autophagy = settings: cited from earlier work

In the case of `CC(C)C[C@@H](NC(=O)[C@@H](CC(C)C)NC(=O)[C@@H](CC(N)=O)NC(=O)[C@H](NC(=O)[C@@H](Cc1ccccc1)NC(=O)CNC(=O)[C@@H](Cc1ccc(O)cc1)NC(=O)CNC(=O)[C@@H](CCCNC(=N)N)NC(=O)[C@@H](CCCCN)NC(=O)[C@@H](CCCCN)NC(=O)[C@@H](CCCNC(=N)N)NC(=O)[C@@H](CCCNC(=N)N)NC(=O)[C@@H](CCC(N)=O)NC(=O)[C@@H](CCCNC(=N)N)NC(=O)[C@@H](CCCNC(=N)N)NC(=O)[C@H](N)CCCNC(=N)N)C(C)C)C(=O)N[C@H](Cc1ccccc1)C(=O)N[C@H](CC(C)C)C(=O)N[C@@H](C(=O)N[C@@H](C(=O)N[C@H](CCC(=O)O)C(=O)O)C(C)C)C(C)C` [TAT-Kα2] (H-[dR][dR][dR][dQ][dR][dR][dK][dK][dR]G[dY]G[dF][dV][dN][dL][dL][dF][dL][dV][dV][dE]-OH), the IC50 [1] is reported as 2900 nM, the “antiviral action at attachment step” value [2] is reported as “inhibition of virus infection” and the “antiviral action at post-attachment step” value [2] is reported as “unable to inhibit virus infection”. The “antiviral action at pre-attachment step” value [2] was “antiviral activity”, the “infection of MDCK cells by peptide-treated PR8-GFP” value [2] was “strongly diminished” and the “infectivity of PR8-GFP virus” value [2] was “dramatically suppressed; also recorded: no viral infection was detected”. For the same compound, the “reduction in the virus titer” value [2] was “approximately 40%”, the “difference in body weight percentage among groups” value [3] was “more than 20%” and the lung histopathology [3] was “intact lung tissues”. The lung virus titer [3] was “no virus was detected”, the survival rate [3] was 100% and the IC50 (Newcastle disease virus) was 800 nM. It also gave an IC50 [4] of 3500 nM, an IC50 [5] of 800 nM and an IC50 [6] of 500 nM. The inhibition of infection (RSV (Hep2 cells)) was “inhibited”, the “cytotoxicity or CPE” value (MDCK cells) was “no cytotoxicity or CPE” and the “infectivity of virus in positive fractions in vitro” value (PR8-GFP virus [7]) was “did not”. The inhibition of infection (VSV (293T cells)) was “inhibited”, the IC50 (Parainfluenza virus) was 2400 nM and the IC50 [8] was 700 nM. The virucidal effect [9] was “did not show any virucidal effects”, the virus transmission (PR8-GFP virus [10]) was “suppressed” and the IC50 [11] was 3400 nM. The IC50 (Coxsakievirus) was “No”, the IC50 [12] was 1200 nM and the IC50 (Herpes simplex virus) was 5700 nM. For the same compound, the IC50 (Enterovirus71) was “No” and the virucidal effect (Enterovirus71) was “did not show any virucidal effects”.

For EVVLFLLNVF [Kα2], the autophagy induction (autophagy) is listed as “robust autophagy inducer”.
